# Test results as given in a melting point compilation (Tetko et al.).
row,SMILES,melting point [°C]
1,CC(C)CC(=O)Nc1ccccc1C(=O)O,121 to 123
2,O=C(NO)c1c(F)cccc1Cl,149 to 151
3,CCCc1nn(-c2ccccc2F)c(Cl)c1C(=O)O,169 to 171
4,CC(C1CC1)N(C)C(=O)c1ccc[nH]c1=O (stereo not given),187 to 189
5,C=CCNC(=O)c1ccc(Cl)nc1,105 to 107
6,CC1CC(=O)c2cccc(Br)c21 (stereo not given),45 to 47
7,CC(=O)c1ccc(NC(=O)NC2CC2)cc1,161 to 163
8,COC(=O)c1cc(I)cc(S(=O)(=O)Cl)c1,67 to 69
9,CCCCC1CCC(C(=O)CC#N)CC1 (stereo not given),52 to 54
10,O=C1Nc2cc(F)c(Cl)cc2C1=O,256 to 258
11,O=C(O)CCCCCc1ccc(O)cc1,104 to 106
12,Nc1ccc(S(=O)(=O)Nc2ccc(Cl)c(Cl)c2)cc1,223 to 225
13,CC(Sc1nnnn1C1CC1)C(=O)O (stereo not given),116 to 118
14,Cc1[nH]c(-c2ncccn2)nc(=O)c1CC(=O)O,194 to 196
15,Cc1nn(-c2ncccn2)c(N)c1Br,159 to 161
16,O=C(O)c1ccc(N2CCCC2)c(F)c1,269 to 271
17,Nc1cccc(S(=O)(=O)Nc2cn[nH]c2)c1,194 to 196
18,N#CCC(=O)c1ccc(C(F)(F)F)cc1,48 to 50
19,CCC(C)Oc1ccccc1C=CC(=O)O (stereo not given),83 to 85
20,O=C(O)c1ccc2nccnc2c1,233 to 235
21,NC(CSCc1cccc2cccnc12)C(=O)O (stereo not given),171 to 173
22,NC(=S)c1cccc(S(N)(=O)=O)c1,152 to 154
23,FC(F)c1nc2c(Cl)cccc2[nH]1,125 to 127
24,O=C(O)C=Cc1ccc(Cl)nc1,209 to 211
25,CSc1cccc(NC(=O)C(C)Cl)c1 (stereo not given),81 to 83
26,ClCc1nc(-c2cccnc2)no1,87 to 89

row,SMILES,melting point [°C]
1,CC(Nc1ccc(Cl)nn1)c1ccccc1 (stereo not given),159 to 161
2,O=C(CC1CCCCC1)NCCC1CNc2ccccc21 (stereo not given),124 to 126
3,CC(C)(C)c1cc(N)n(C2CCS(=O)(=O)C2)n1 (stereo not given),247 to 249
4,CCc1c(-c2ccncc2)n[nH]c1N,154 to 156
5,CCOc1ccc(C(=O)N(C)C)cc1N,127 to 129
6,Cc1nncn1-c1cccc(N)c1,109 to 111
7,O=C(Cc1ccc(O)cc1)NC1CCNCC1,211 to 213
8,CN(C)c1nnc(S)s1,178 to 180
9,O=C(O)CCNS(=O)(=O)c1ccc(Cl)cc1,155 to 159
10,Sc1nnc(C2CC2)n1Cc1ccccc1,176 to 178
11,O=CCCc1nc2ccccc2o1,62 to 64
12,Cc1cc(NC(=O)OC(C)(C)C)ccn1,167 to 169
13,N#Cc1ccc(Cl)cc1NC1CCCC1,74 to 76
14,Cc1[nH]c2ccc(CN)cc2c1C,149 to 151
15,Cc1ccc(C)n1-c1sccc1C(=O)O,168 to 170
16,O=C(O)c1cc(N/N=C/c2ccccc2Br)ccc1Cl,180 to 182
17,CN(C)Cc1ccc(C(N)=O)cc1N,156 to 158
18,CS(=O)(=O)c1ccc(Cl)s1,69 to 71
19,NC(CC(=O)Nc1ccc(F)cc1)=NO,142 to 144
20,N#Cc1cnn2cc(C=O)cnc12,222 to 224
21,Cn1cnc([N+](=O)[O-])c1CCl,127 to 129
22,CN(C)c1ccc(CCC(=O)O)cc1,105 to 107
23,Nc1cccc(CN2CCC(O)CC2)c1,146 to 148
24,CCOc1ccc(-c2nc(N)sc2C)cc1,98 to 100
25,O=c1ccnc(-c2ccccc2)[nH]1,204 to 206
26,CC(C)(C)OC(=O)N1CCC(C(=O)O)(c2ccccc2)CC1,116 to 118

row,SMILES,melting point [°C]
1,O=C(O)C1(c2ccccc2)CCC1,105 to 107
2,Cc1noc(N)c1C(=O)O,150 to 154
3,N#CCC(C(=O)O)c1ccccc1 (stereo not given),64 to 66
4,O=C(O)c1ccc(NS(=O)(=O)c2cccs2)cc1,226 to 228
5,O=c1c(Oc2ccccc2)coc2cc(O)ccc12,197 to 199
6,Nc1nnc(-c2ccncc2)o1,239 to 241
7,O=Cc1ccc(-c2ccc(Cl)c(Cl)c2)s1,126 to 128
8,Cc1cnc(NC(=O)c2ccc(Br)o2)s1,190 to 192
9,CCCOc1ccc(C=O)cc1OCC,36 to 38
10,CC(Sc1ccnc2cc(Cl)ccc12)C(=O)O (stereo not given),201 to 203
11,Cc1cc(C=O)c(C)n1-c1ccc2c(c1)OCCO2,112 to 114
12,Nc1cncc(Br)c1,65 to 69
13,Sc1nc(-c2ccccc2Cl)no1,100 to 102
14,O=C(O)c1ccc(Oc2cccc(F)c2[N+](=O)[O-])c(Cl)c1,169 to 171
15,Nn1c(S)nnc1-c1ccccc1Cl,110 to 113
16,Nc1ccc(OCc2cccnc2)cc1,79 to 81
17,NC(=S)c1ncc(N)s1,191 to 193
18,COc1ccc(-n2ccnc2S)c(C)c1,238 to 240
19,CNc1cc(-c2cccc(OC)c2)[nH]n1,109 to 111
20,O=C(O)CCCNc1ncccn1,127 to 129
21,Cc1cccc(-c2nnc(CO)o2)c1,82 to 84
22,O=C(NC1CCc2ccccc21)c1ccnc(F)c1 (stereo not given),121 to 123
23,C1CCC(NC2=NCCCS2)CC1,112 to 114
24,CCOC(=O)C1CN(Cc2ccccc2)CCC1=O (stereo not given),161 to 163
25,N#Cc1ccc(C(F)(F)F)nc1Cl,38 to 40

# The remaining lines, values ahead:
row,melting point [°C],SMILES
1,135 to 137,Nc1ccc(Oc2ccnc3ccccc23)cc1
2,188 to 190,O=C1CS/C(=C/C(=O)C2CC2)N1
3,144 to 146,CC(C)(C(=O)NO)c1ccccc1
4,180 to 182,Nc1ccc(S(=O)(=O)Nc2ccc(Cl)cc2)cc1
5,87 to 89,CC1CCCC(=O)N1 (stereo not given)
6,101 to 103,CC(O)CNc1cc(Cl)ncn1 (stereo not given)
7,119 to 121,Cc1ccccc1-c1nc(C(=O)O)cs1
8,82 to 84,Nc1ccnn1Cc1ccccc1
9,278 to 280,O=C(O)c1ccc(-c2cscn2)cc1
10,79 to 83,Nc1ccccc1C(=O)N1CCCCC1
11,203 to 205,O=C(O)CCc1n[nH]c(=O)[nH]c1=O
12,163 to 165,NS(=O)(=O)c1c(F)cccc1[N+](=O)[O-]
13,135 to 137,Cc1sc(N)nc1-c1ccc(F)c(F)c1
14,214 to 216,O=C(O)Cn1ccnn1
15,131 to 133,CC(=O)NCCc1ccc(S(=O)(=O)Cl)cc1
16,117 to 121,O=[N+]([O-])c1ccc(O)c(Cc2ccccc2)c1
17,139 to 141,O=C(O)Cc1ccc(S(=O)(=O)C(F)F)cc1
18,241 to 243,O=C1NC(=O)c2ncccc21
19,135 to 137,CC(Cl)C(=O)NC(=O)Nc1ccccc1F (stereo not given)
20,94 to 96,CCOC(=O)C(N)=NO
21,112 to 114,N#Cc1cccc(CN2C(=O)CSC2=O)c1
22,105 to 107,Cc1nn(-c2ccccc2)c(Oc2ccc(F)cc2)c1C=O
23,32 to 34,COc1ccc(I)cc1F

row,melting point [°C],SMILES
1,178 to 180,Nc1c(Cl)nc2ccccc2c1N
2,164 to 166,COC(=O)C(=O)CC(=O)c1ccc(N2CCOCC2)cc1
3,119 to 121,O=C(O)C=CSCc1ccco1
4,210 to 214,Cc1ncc([N+](=O)[O-])cc1C(=O)O
5,135 to 137,OC1CCN(c2nncc3ccccc23)CC1
6,135 to 137,CC(=O)Nc1ncccc1N
7,243 to 245,CCn1ncc2c(C(=O)O)cc(-c3cccs3)nc21
8,50 to 52,O=[N+]([O-])c1ccn(CCBr)n1
9,86 to 90,O=C(Nc1cccnc1)C(Cl)C(=O)c1ccccc1 (stereo not given)
10,38 to 40,COC(=O)C(C)Oc1ccc(F)cc1Br (stereo not given)
11,118 to 120,CC(NC(=O)c1ccccc1NC(=O)CCl)c1ccccc1 (stereo not given)
12,81 to 83,Cc1cc(Cl)c2cc(OC(F)F)ccc2n1
13,177 to 179,Cc1ccc(CN(C)c2ccc(C(=O)O)cc2)cc1
14,99 to 101,O=C(CN1CCNCC1)NC1CCCCC1
15,189 to 191,O=C(Nc1ccccc1C(=O)O)c1cccc(Br)c1
16,309 to 311,Cc1c(C(=O)O)sc2[nH]cnc(=S)c12
17,189 to 191,COC(=O)c1cccc(N2CC(=O)NC2=O)c1
18,207 to 209,CCS(=O)(=O)c1ccc(NC(=O)CCl)c(O)c1
19,127 to 129,N#Cc1ccccc1-c1ccc(CBr)cc1
20,74 to 76,COC(=O)Cn1ccc(N)n1
21,105 to 107,O=c1c2ccccc2ncn1CCBr
22,71 to 75,Cc1cc(C=O)c(C)n1-c1ccc2c(c1)CCC2
23,44 to 46,COCCNC(C)(C)CO

row,melting point [°C],SMILES
1,179 to 181,Cc1ccc(-c2csc(NC(=O)CCl)n2)cc1C
2,120 to 122,COc1ccc(NC(=O)CCCl)cc1
3,175 to 177,CC(=O)NCCc1ccc(C(=O)O)cc1
4,179 to 181,COc1cc(C(=O)O)ccc1OCc1cccnc1
5,69 to 71,NC1CCCOc2ccccc21 (stereo not given)
6,83 to 85,CC(C)(C)OC(=O)NC(CO)CO
7,153 to 155,NS(=O)(=O)c1ccc(F)cc1[N+](=O)[O-]
8,99 to 101,Cn1cnc2cc(C=O)ccc21
9,63 to 65,N#CCC(=O)c1c(Cl)cccc1Cl
10,197 to 199,Nc1nnc(Cc2ccc(F)cc2)[nH]1
11,63 to 65,CCC1(C)NC(=O)N(CCCN)C1=O (stereo not given)
12,105 to 107,CC(C)(C)n1cc(C#N)cc1N
13,369 to 371,Oc1ccnc2cc(Cl)c(Br)cc12
14,138 to 140,COC(=O)c1cc(Br)cc(S(N)(=O)=O)c1
15,112 to 114,CCCCOc1ccc(-c2cc(N)on2)cc1
16,242 to 244,O=c1[nH]c2ccc([N+](=O)[O-])cc2o1
17,253 to 255,Cc1cc(Cl)cc2nc(S)oc12
18,158 to 162,O=C(O)c1cc(S(=O)(=O)Cl)c(Cl)cc1Cl
19,195 to 197,Sc1nnc(-c2ccncc2)n1Cc1ccccc1
20,47 to 49,CN(C)S(=O)(=O)c1cccc(N=C=S)c1
21,152 to 154,O=C(O)CNC(=O)c1ccccc1C(F)(F)F
22,84 to 86,COc1ccc2c(c1)CCCC2CC(=O)O (stereo not given)
